In patent US20020051978A1, “Methods and compositions for the identification, assessment, prevention and therapy of human cancers” (priority 2000, published 2002):
Like-named read-outs stand apart in the source and are kept apart here.

How the values were obtained:
[1] = system: 60 cancer cell lines (NCI 60 cancer cell line series); test: NCI-DTP in vitro cancer screen, sulforhodamine B (SRB) growth inhibition, 48 hour exposure; assay type: cell-based, human; parameters: key to sensitivity class Ovarian OVCAR-8 CL6005 / sensitivity class Ovarian SK-OV-3 CL6011 / sensitivity class Prostate DU-145 CL11003 / sensitivity class NSCLC NCI-H522 CL1003 / sensitivity class Ovarian IGROV1 CL6010 / sensitivity class Ovarian OVCAR-4 CL6002 / sensitivity class Prostate PC-3(I) CL11001 / sensitivity class Renal A498 CL9013 / sensitivity class Renal SN12C CL9008: sensitivity class: 1 = Low, 2 = Medium, 3 = High
Procedure, shortened: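 Values come from the NCI-DTP screen database: -log GI50, the concentration giving 50% growth inhibition, derived from SRB cell-mass dose-response curves. Each line seeded at its own density, treated day 1 at five ten-fold-spaced doses in duplicate wells, stained after 48 h.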

[2] = system: 60 cancer cell lines (NCI 60 cancer cell line series); details: cited from earlier work

NC(=O)NO [Hydroxyurea]
2: classification of cell line as Low(1), Medium(2) or High(3) sensitivity to compound ([1]; Breast HS-578T CL5006) | classification of cell line as Low(1), Medium(2) or High(3) sensitivity to compound ([1]; Breast MCF7(I) (CL5001)) | classification of cell line as Low(1), Medium(2) or High(3) sensitivity to compound ([1]; Breast MCF7/ADRr (CL5002)) | classification of cell line as Low(1), Medium(2) or High(3) sensitivity to compound ([1]; CNS SF-268 CL12014) | classification of cell line as Low(1), Medium(2) or High(3) sensitivity to compound ([1]; CNS SNB-75(I) CL12005) | classification of cell line as Low(1), Medium(2) or High(3) sensitivity to compound ([1]; CNS U251(I) CL12009) | classification of cell line as Low(1), Medium(2) or High(3) sensitivity to compound ([1]; Colon HCC-2998 (CL4002)) | classification of cell line as Low(1), Medium(2) or High(3) sensitivity to compound ([1]; Colon HCT-15 CL4015) | classification of cell line as Low(1), Medium(2) or High(3) sensitivity to compound ([1]; Colon HCT-116 (CL4003)) | classification of cell line as Low(1), Medium(2) or High(3) sensitivity to compound ([1]; Colon HT29(I) CL4001) | classification of cell line as Low(1), Medium(2) or High(3) sensitivity to compound ([1]; Colon KM12 (CL4017)) | classification of cell line as Low(1), Medium(2) or High(3) sensitivity to compound ([1]; Colon SW-620 (CL4009)) | classification of cell line as Low(1), Medium(2) or High(3) sensitivity to compound ([1]; Leukemia K562(I) CL7005) | classification of cell line as Low(1), Medium(2) or High(3) sensitivity to compound ([1]; Melanoma LOX IMVI CL10001) | classification of cell line as Low(1), Medium(2) or High(3) sensitivity to compound ([1]; Melanoma M14 (CL10014)) | classification of cell line as Low(1), Medium(2) or High(3) sensitivity to compound ([1]; Melanoma MALME-3M CL10002) | classification of cell line as Low(1), Medium(2) or High(3) sensitivity to compound ([1]; Melanoma SK-MEL-5 (CL10007)) | classification of cell line as Low(1), Medium(2) or High(3) sensitivity to compound ([1]; NSCLC A549/ATCC (CL1004)) | classification of cell line as Low(1), Medium(2) or High(3) sensitivity to compound ([1]; NSCLC HOP-62 (CL1026)) | classification of cell line as Low(1), Medium(2) or High(3) sensitivity to compound ([1]; NSCLC HOP-92 (CL1029)) | classification of cell line as Low(1), Medium(2) or High(3) sensitivity to compound ([1]; NSCLC NCI-H226 CL1013) | sensitivity class NSCLC NCI-H23(I) CL1001 ([1]; cell line NSCLC NCI-H23(I), CL1001) | sensitivity class NSCLC NCI-H522 CL1003 ([1]; cell line NSCLC NCI-H522, CL1003) | sensitivity class Ovarian IGROV1 CL6010 ([1]; cell line Ovarian IGROV1, CL6010) | sensitivity class Ovarian OVCAR-3 CL6001 ([1]; cell line Ovarian OVCAR-3, CL6001) | sensitivity class Ovarian OVCAR-5 CL6003 ([1]; cell line Ovarian OVCAR-5, CL6003) | sensitivity class Ovarian OVCAR-8 CL6005 ([1]; cell line Ovarian OVCAR-8, CL6005) | sensitivity class Prostate DU-145 CL11003 ([1]; cell line Prostate DU-145, CL11003) | sensitivity class Prostate PC-3(I) CL11001 ([1]; cell line Prostate PC-3(I), CL11001) | sensitivity class Renal 786-O CL9018 ([1]; cell line Renal 786-O, CL9018) | sensitivity class Renal A498 CL9013 ([1]; cell line Renal A498, CL9013) | sensitivity class Renal RXF-393 CL9016 ([1]; cell line Renal RXF-393, CL9016) | sensitivity class Renal SN12C CL9008 ([1]; cell line Renal SN12C, CL9008) | sensitivity class Renal UO-31 CL9004 ([1]; cell line Renal UO-31, CL9004)
4.7: -Log (GI50) ([2]; Leukemia HL-60(I) (CL7008))
3.7: -Log (GI50) ([2]; Leukemia SR CL7019)
2.8: -Log (GI50) ([2]; Breast BT-549 (CL5013)) | -Log (GI50) ([2]; Breast T-47D (CL5014)) | -Log (GI50) ([2]; CNS SNB-19 (CL12002)) | -Log (GI50) ([2]; Colon COLO-250 CL4010) | -Log (GI50) ([2]; Melanoma SK-MEL-2 (CL10005)) | -Log (GI50) ([2]; Melanoma UACC-257 (CL10021)) | -Log (GI50) ([2]; NSCLC EKVX (CL1008)) | -Log (GI50) ([2]; NSCLC NCI-H332M CL1017) | -Log (GI50) ([2]; Ovarian OVCAR-4 CL6002) | -Log (GI50) ([2]; Ovarian SK-OV-3 CL6011)
4.0: -Log (GI50) ([2]; Renal ACHN CL9023)
2.7: -Log (GI50) ([2]; Breast MDA-MB-435 (CL5011)) | -Log (GI50) ([2]; Breast MDA-N CL5012) | -Log (GI50) ([2]; Melanoma SK-MEL-28 (CL10008)) | -Log (GI50) ([2]; Renal TK10 CL9024)
2.6: -Log (GI50) ([2]; Breast MDA-MB-231 CL5005)
3.2: -Log (GI50) ([2]; Melanoma LOX IMVI CL10001) | -Log (GI50) ([2]; Melanoma M14 (CL10014)) | -Log (GI50) ([2]; Melanoma SK-MEL-5 (CL10007)) | -Log (GI50) ([2]; Ovarian OVCAR-5 CL6003) | -Log (GI50) ([2]; Renal A498 CL9013) | -Log (GI50) ([2]; Renal RXF-393 CL9016)
2.9: -Log (GI50) ([2]; Melanoma MALME-3M CL10002)
3.5: -Log (GI50) ([2]; Breast MCF7(I) (CL5001)) | -Log (GI50) ([2]; Breast MCF7/ADRr (CL5002)) | -Log (GI50) ([2]; CNS SF-295 CL12015) | -Log (GI50) ([2]; CNS SF-539 CL12016) | -Log (GI50) ([2]; NSCLC NCI-H460 CL1021) | -Log (GI50) ([2]; Renal 786-O CL9018)
3.6: -Log (GI50) ([2]; Leukemia RPMI-8226(I) (CL7010)) | -Log (GI50) ([2]; Melanoma UACC-62 (CL10020)) | -Log (GI50) ([2]; Renal CAKI-1 CL9015)
3: classification of cell line as Low(1), Medium(2) or High(3) sensitivity to compound ([1]; CNS SF-295 CL12015) | classification of cell line as Low(1), Medium(2) or High(3) sensitivity to compound ([1]; CNS SF-539 CL12016) | classification of cell line as Low(1), Medium(2) or High(3) sensitivity to compound ([1]; Leukemia CCRF-CEM(I) (CL7003)) | classification of cell line as Low(1), Medium(2) or High(3) sensitivity to compound ([1]; Leukemia HL-60(I) (CL7008)) | classification of cell line as Low(1), Medium(2) or High(3) sensitivity to compound ([1]; Leukemia MOLT-4 (CL7006)) | classification of cell line as Low(1), Medium(2) or High(3) sensitivity to compound ([1]; Leukemia RPMI-8226(I) (CL7010)) | classification of cell line as Low(1), Medium(2) or High(3) sensitivity to compound ([1]; Leukemia SR CL7019) | classification of cell line as Low(1), Medium(2) or High(3) sensitivity to compound ([1]; Melanoma UACC-62 (CL10020)) | sensitivity class NSCLC NCI-H460 CL1021 ([1]; cell line NSCLC NCI-H460, CL1021) | sensitivity class Renal ACHN CL9023 ([1]; cell line Renal ACHN, CL9023) | sensitivity class Renal CAKI-1 CL9015 ([1]; cell line Renal CAKI-1, CL9015)
1: classification of cell line as Low(1), Medium(2) or High(3) sensitivity to compound ([1]; Breast BT-549 (CL5013)) | classification of cell line as Low(1), Medium(2) or High(3) sensitivity to compound ([1]; Breast MDA-MB-231 CL5005) | classification of cell line as Low(1), Medium(2) or High(3) sensitivity to compound ([1]; Breast MDA-MB-435 (CL5011)) | classification of cell line as Low(1), Medium(2) or High(3) sensitivity to compound ([1]; Breast MDA-N CL5012) | classification of cell line as Low(1), Medium(2) or High(3) sensitivity to compound ([1]; Breast T-47D (CL5014)) | classification of cell line as Low(1), Medium(2) or High(3) sensitivity to compound ([1]; CNS SNB-19 (CL12002)) | classification of cell line as Low(1), Medium(2) or High(3) sensitivity to compound ([1]; Colon COLO-250 CL4010) | classification of cell line as Low(1), Medium(2) or High(3) sensitivity to compound ([1]; Melanoma SK-MEL-2 (CL10005)) | classification of cell line as Low(1), Medium(2) or High(3) sensitivity to compound ([1]; Melanoma SK-MEL-28 (CL10008)) | classification of cell line as Low(1), Medium(2) or High(3) sensitivity to compound ([1]; Melanoma UACC-257 (CL10021)) | classification of cell line as Low(1), Medium(2) or High(3) sensitivity to compound ([1]; NSCLC EKVX (CL1008)) | sensitivity class NSCLC NCI-H332M CL1017 ([1]; cell line NSCLC NCI-H332M, CL1017) | sensitivity class Ovarian OVCAR-4 CL6002 ([1]; cell line Ovarian OVCAR-4, CL6002) | sensitivity class Ovarian SK-OV-3 CL6011 ([1]; cell line Ovarian SK-OV-3, CL6011) | sensitivity class Renal TK10 CL9024 ([1]; cell line Renal TK10, CL9024)
3.3: -Log (GI50) ([2]; CNS SF-268 CL12014) | -Log (GI50) ([2]; CNS U251(I) CL12009) | -Log (GI50) ([2]; Colon HT29(I) CL4001) | -Log (GI50) ([2]; NSCLC A549/ATCC (CL1004)) | -Log (GI50) ([2]; Ovarian OVCAR-8 CL6005) | -Log (GI50) ([2]; Renal UO-31 CL9004)
3.8: -Log (GI50) ([2]; Leukemia MOLT-4 (CL7006))
3.0: -Log (GI50) ([2]; Colon HCT-116 (CL4003)) | -Log (GI50) ([2]; Colon SW-620 (CL4009)) | -Log (GI50) ([2]; Leukemia K562(I) CL7005) | -Log (GI50) ([2]; NSCLC HOP-62 (CL1026)) | -Log (GI50) ([2]; Ovarian IGROV1 CL6010) | -Log (GI50) ([2]; Ovarian OVCAR-3 CL6001) | -Log (GI50) ([2]; Prostate PC-3(I) CL11001)
4.3: -Log (GI50) ([2]; Leukemia CCRF-CEM(I) (CL7003))
3.1: -Log (GI50) ([2]; Breast HS-578T CL5006) | -Log (GI50) ([2]; CNS SNB-75(I) CL12005) | -Log (GI50) ([2]; Colon HCC-2998 (CL4002)) | -Log (GI50) ([2]; Colon HCT-15 CL4015) | -Log (GI50) ([2]; Colon KM12 (CL4017)) | -Log (GI50) ([2]; NCSLC NCI-H522 CL1003) | -Log (GI50) ([2]; NSCLC HOP-92 (CL1029)) | -Log (GI50) ([2]; NSCLC NCI-H23(I) CL1001) | -Log (GI50) ([2]; NSCLC NCI-H226 CL1013) | -Log (GI50) ([2]; Prostate DU-145 CL11003) | -Log (GI50) ([2]; Renal SN12C CL9008)
